Results on 49 compounds are retold here after US20050080090A1, “Naphthalene derivatives” (priority 1993, published 2005).

Structures can show the parent of a compound that is named as a salt. Where only a bound is given, the exact number is not on record here.

What is called melting point is the temperature, or range, at which the solid turns liquid.

For the compound `O=C(Nc1ccc2cccc(N3CCNCC3)c2c1)c1ccccc1`, the melting point was 141.5 to 144 °C.
Regarding `CN1CCN(c2cccc3ccc(NC(=O)C(F)(F)F)cc23)CC1`, the melting point lay within 159 to 160 °C.
In the case of `CC(=O)Nc1ccc2cccc(N3CCN(C)CC3)c2c1`, the melting point fell in the range of 177 to 180 °C.
The same measure for `CN1CCN(c2cccc3ccc(N)cc23)CC1`: 157 to 159 °C; for `CN1CCN(c2cccc3ccc(Nc4ccc([N+](=O)[O-])cc4[N+](=O)[O-])cc23)CC1`: 153 to 154 °C; for `CN1CCC(c2cccc3ccc(N)cc23)CC1`: 169.5 to 171 °C.
For `CN1CCCC(c2cccc3ccc(N)cc23)C1` (stereo not shown), the melting point fell in the range of 117 to 120 °C.
The compound `CN1CCN(c2cccc3ccc(NC(=O)c4cc([N+](=O)[O-])cc([N+](=O)[O-])c4)cc23)CC1` returned a melting point of 254 to 256 °C.
`Cl.O=CNc1ccc2cccc(C[C@H]3CCCN3)c2c1` registered a melting point of 223.5 to 224 °C.
The same measure for `Nc1ccc2cccc(N3CCNCC3)c2c1`: 184 to 186 °C.
`CN1CCCC(c2cccc3ccc(-n4cnc5ncccc54)cc23)C1` (stereo not shown) (as salt: HCl) [Example 63, 7-(Imidazolo[4,5-b]pyridin-1-yl)-1-(1-methyl-3-piperidinyl)-naphthalene] returned a melting point of over 250 °C.
In turn, `CN1CCCC(c2cccc3ccc(NC(=O)c4ccccc4)cc23)C1` (stereo not shown) (as salt: HCl) [Example 64, 7-Benzamido-1-(1-methyl-3-piperidinyl)-naphthalene] had a melting point of 140 to 170 °C.
Consider `O=C(Nc1ccc2cccc(C[C@H]3CCCN3)c2c1)c1ccc(Cl)cc1` (as salt: HCl) [Example 71, 7-(4-Chlorobenzamido)-1-(pyrrolidin-2-(R)-ylmethyl)-naphthalene], for which the melting point lay within 230 to 231.5 °C.
The figure for `c1cc(N2CCNCC2)c2cc(-n3cnc4ncccc43)ccc2c1` (as salt: hydrochloride) is over 250 °C; for `c1cc(N2CCNCC2)c2cc(-n3nnc4ncccc43)ccc2c1` (as salt: hydrochloride) it is over 250 °C; for `CN1CCN(c2cccc3ccc(OCc4ccc(C(F)(F)F)cc4)cc23)CC1` (as salt: hydrochloride) [Example 51, 7-(4-Trifluoromethylbenzyloxy)-1-(4-methyl-1-piperazinyl)-naphthalene] it is 205 to 206 °C.
In turn, `COCCN1CCN(c2cccc3ccc(NC(=O)c4ccc(Cl)cc4)cc23)CC1` (as salt: hydrochloride) [Example 65, 7-(4-Chlorobenzamido)-1-(4-methoxyethyl-1-piperazinyl)-naphthalene] returned a melting point of 134 to 148 °C.
The compound `COc1cccc(-c2ccc3cccc(N4CCN(C)CC4)c3c2)c1` (as salt: hydrochloride) [Example 81, 7-(3-Methoxyphenyl)-1-(4-methylpiperazin-1-yl)naphthalene] yielded a melting point of 236 to 238 °C.
Regarding `CN1CCN(c2cccc3ccc(Nc4ncccc4N)cc23)CC1` (hydrate or solvate) [Example 29, 7-(3-Amino-2-pyridylamino)-1-(4-methyl-1-piperazinyl)-naphthalene], the melting point lay in the range of 198 to 200 °C.
The figure for `CN1CCN(c2cccc3ccc(NC(=O)c4ccccc4)cc23)CC1` [Example 1, 7-Benzamido-1-(4-methyl-1-piperazinyl)-naphthalene] is 173 to 175 °C; for `CN1CCN(c2cccc3ccc(NC(=O)c4cccc([N+](=O)[O-])c4)cc23)CC1` [Example 4, 7-(3-Nitrobenzamido)-1-(4-methyl-1-piperazinyl)-naphthalene] it is 182 to 184 °C; for `CN1CCN(c2cccc3ccc(NC(=O)c4cccc(Cl)c4)cc23)CC1` [Example 6, 7-(3-Chlorobenzamido)-1-(4-methyl-1-piperazinyl)-naphthalene] it is 147 to 148 °C.
`CN1CCN(c2cccc3ccc(NC(=O)c4ccc(Cl)cc4)cc23)CC1` [Example 8, 7-(4-Chlorobenzamido)-1-(4-methyl-1-piperazinyl)-naphthalene] yielded a melting point of 174 to 175 °C.
In turn, `CN1CCN(c2cccc3ccc(NC(=O)c4cccc(C#N)c4)cc23)CC1` [Example 9, 7-(3-Cyanobenzamido)-1-(4-methyl-1-piperazinyl)-naphthalene] showed a melting point of 220 to 222 °C.
As to `CN1CCN(c2cccc3ccc(NC(=O)c4ccc(O)cc4)cc23)CC1` [Example 10, 7-(4-Hydroxybenzamido)-1-(4-methyl-1-piperazinyl)-naphthalene], the melting point was in the range of 156 to 160 °C.
For `CN1CCN(c2cccc3ccc(NCc4cccc5ccccc45)cc23)CC1` [Example 13, 7-(1-Naphthylmethylamino)-1-(4-methyl-1-piperazinyl)-naphthalene], the melting point is 140 to 141 °C.
The same measure for `CN1CCN(c2cccc3ccc(NCc4ccccc4)cc23)CC1` [Example 14, 7-(Benzylamino)-1-(4-methyl-1-piperazinyl)-naphthalene]: 115 to 117 °C; for `CCCCCC(=O)Nc1ccc2cccc(N3CCN(C)CC3)c2c1` [Example 17, 7-Hexanamido-1-(4-methyl-1-piperazinyl)-naphthalene]: 144 to 146 °C; for `CN1CCN(c2cccc3ccc(NC(=O)Nc4ccccc4)cc23)CC1` [Example 19, 7-(Phenylaminocarbonylamino)-1-(4-methyl-1-piperazinyl)-naphthalene]: 213 to 214 °C.
The figure for `CN1CCN(c2cccc3ccc(NC(=O)OCc4ccccc4)cc23)CC1` [Example 20, 7-(Benzyloxycarbonylamino)-1-(4-methyl-1-piperazinyl)-naphthalene] is 143 to 144 °C; for `CN1CCN(c2cccc3ccc(Nc4nc(Cc5ccccc5)cs4)cc23)CC1` [Example 24, 4-Benzyl-2-[-1-(4-methyl-1-piperazinyl)-7-naphthylamino]-thiazole] it is 157 to 160 °C; for `CN1CCN(c2cccc3ccc(Nc4ncccc4[N+](=O)[O-])cc23)CC1` [Example 25, 7-(3-Nitro-2-pyridinylamino)-1-(4-methyl-1-piperazinyl)-naphthalene] it is 127.5 to 129 °C.
For `CN1CCN(c2cccc3ccc(Nc4ccc([N+](=O)[O-])cn4)cc23)CC1` [Example 27, 7-(5-Nitro-2-pyridylamino)-1-(4-methyl-1-piperazinyl)-naphthalene], the melting point lay within 121 to 125 °C.
Compound `CN1CCN(c2cccc3ccc(Nc4ccccc4[N+](=O)[O-])cc23)CC1` [Example 28, 7-(2-Nitrophenylamino)-1-(4-methyl-1-piperazinyl)-naphthalene] had a melting point of 87 to 94 °C.
The same measure for `CN1CCN(c2cccc3ccc(Nc4ncccc4NC(=O)c4ccccc4)cc23)CC1` [Example 30, 7-(3-Benzamido-2-pyridylamino)-1-(4-methyl-1-piperazinyl)-naphthalene]: 205 to 207 °C.
As for `CC(=O)Nc1cccnc1Nc1ccc2cccc(N3CCN(C)CC3)c2c1` [Example 31, 7-(3-Acetamido-2-pyridylamino)-1-(4-methyl-1-piperazinyl)-naphthalene], the melting point is 110 to 114 °C (dec.).
`CN1CCN(c2cccc3ccc(-n4cnc5ncccc54)cc23)CC1` [Example 35, 7-(Imidazolo[4,5-b]pyridin-1-yl)-1-(4-methyl-1-piperazinyl)-naphthalene] had a melting point of 107 to 112 °C.
Compound `CN1CCN(c2cccc3ccc(-n4cnc5ccccc54)cc23)CC1` [Example 37, 7-(Benzimidazol-1-yl)-1-(4-methyl-1-piperazinyl)-naphthalene] showed a melting point of 148 to 150 °C.
The same measure for `CN1CCN(c2cccc3ccc(OCc4ccc(Cl)cc4)cc23)CC1` [Example 40, 7-(4-Chlorobenzyloxy)-1-(4-methyl-1-piperazinyl)-naphthalene]: 111.5 to 112 °C; for `CNS(=O)(=O)c1cccc(-c2ccc3cccc(N4CCN(C)CC4)c3c2)c1` [Example 41, 7-(3-Methylaminosulfonylphenyl)-1-(4-methyl-1-piperazinyl)naphthalene]: 147.5 to 148 °C.
`CN1CCN(c2cccc3ccc(-c4cccc(NS(C)(=O)=O)c4)cc23)CC1` [Example 42, 7-(3-Methylsulfonylaminophenyl)-1-(4-methyl-1-piperazinyl)-naphthalene] gave a melting point of 100 to 101 °C.
Compound `CN1CCN(c2cccc3ccc(C(=O)c4ccccc4)cc23)CC1` [Example 43, 7-Benzoyl-1-(4-methyl-1-piperazinyl)naphthalene] yielded a melting point of 124 to 124.5 °C.
The compound `CN1CCN(c2cccc3ccc(C(O)c4ccccc4)cc23)CC1` (stereo not drawn) [Example 44, 7-(α-Hydroxybenzyl)-1-(4-methyl-1-piperazinyl)-naphthalene] yielded a melting point of 162.5 to 163 °C.
In turn, `CN1CCN(c2cccc3ccc(C(O)(c4ccccc4)c4ccccc4)cc23)CC1` [Example 45, 7-(Diphenylhydroxymethyl)-1-(4-methyl-1-piperazinyl)-naphthalene] came in with a melting point of 217.5 to 218.5 °C.
In turn, `CN1CCN(c2cccc3ccc(OCc4ccccc4)cc23)CC1` [Example 49, 7-(Benzyloxy)-1-(4-methyl-1-piperazinyl)-naphthalene] showed a melting point of 81.5 to 82.5 °C.
The same measure for `CN1CCN(c2cccc3ccc(OCc4ccc(Cl)c(Cl)c4)cc23)CC1` [Example 50, 7-(3,4-Dichlorobenzyloxy)-1-(4-methyl-1-piperazinyl)-naphthalene]: 113 to 114 °C.
The figure for `CN1CCN(c2cccc3ccc(OC(=O)c4ccccc4)cc23)CC1` [Example 52, 7-Benzoyloxy-1-(4-methyl-1-piperazinyl)-naphthalene] is 82 to 82.5 °C; for `CN1CCN(c2cccc3ccc(OC(=O)c4ccc(Cl)cc4)cc23)CC1` [Example 53, 7-(4-Chlorobenzoyloxy)-1-(4-methyl-1-piperazinyl)-naphthalene] it is 110 to 111 °C.
Turning to `CN1CCN(c2cccc3ccc(OCc4cccc(Cl)c4)cc23)CC1` [Example 54, 7-(3-Chlorobenzyloxy)-1-(4-methyl-1-piperazinyl)-naphthalene], the melting point is 67.5 to 68 °C.
